In ChEMBL document CHEMBL3045429, “Exploration of antimicrobial potential of pyrazolo[3,4-b]pyridine scaffold bearing benzenesulfonamide and trifluoromethyl moieties” (2013):
≈ marks a conversion by molar mass, not a printed value. Calls of active or inactive are those of the source. The rule behind the calls is not given here.

Tests used:
Saccharomyces cerevisiae [1] = test: Antifungal activity against Saccharomyces cerevisiae MTCC 170 assessed as growth inhibition at 4 mg/mL after 24 hr by agar well diffusion method; type: functional; conditions: for zone of inhibition at 4000 µg/mL: MTCC 170, 24 h, read-out: DIZ
Candida albicans [2] = test: Antifungal activity against Candida albicans MTCC 227 assessed as growth inhibition at 4 mg/mL after 24 hr by agar well diffusion method; type: functional; conditions: for zone of inhibition at 4000 µg/mL: MTCC 227, 24 h, read-out: DIZ
Staphylococcus aureus [3] = test: Antibacterial activity against Staphylococcus aureus MTCC 96 assessed as growth inhibition at 4 mg/mL after 24 hr by agar well diffusion method; type: functional; conditions: for zone of inhibition at 4000 µg/mL: MTCC 96, 24 h, read-out: DIZ
Escherichia coli = test: Antibacterial activity against Escherichia coli MTCC 1652 assessed as growth inhibition at 4 mg/mL after 24 hr by agar well diffusion method; type: functional, organism-based
Staphylococcus aureus [4] = test: Antibacterial activity against Staphylococcus aureus MTCC 96 assessed as growth inhibition after 24 hr by agar well diffusion method; type: functional; conditions: MTCC 96, 24 h
Bacillus subtilis [5] = test: Antibacterial activity against Bacillus subtilis MTCC 121 assessed as growth inhibition after 24 hr by agar well diffusion method; type: functional; conditions: MTCC 121, 24 h
Bacillus subtilis [6] = test: Antibacterial activity against Bacillus subtilis MTCC 121 assessed as growth inhibition at 4 mg/mL after 24 hr by agar well diffusion method; type: functional; conditions: for zone of inhibition at 4000 µg/mL: MTCC 121, 24 h, read-out: DIZ
Candida albicans [7] = test: Antifungal activity against Candida albicans MTCC 227 assessed as growth inhibition after 24 hr by agar well diffusion method; type: functional; conditions: MTCC 227, 24 h
Saccharomyces cerevisiae [8] = test: Antifungal activity against Saccharomyces cerevisiae MTCC 170 assessed as growth inhibition after 24 hr by agar well diffusion method; type: functional; conditions: MTCC 170, 24 h

SMILES | growth inhibition (GI) (Saccharomyces cerevisiae [1]) | growth inhibition (GI) (Candida albicans [2]) | zone of inhibition at 4000 µg/mL (Staphylococcus aureus [3]) [mm] | growth inhibition (GI) (Escherichia coli) | MIC (Staphylococcus aureus [4]) [µg/mL] | MIC (Bacillus subtilis [5]) [µg/mL] | zone of inhibition at 4000 µg/mL (Bacillus subtilis [6]) [mm] | zone of inhibition at 4000 µg/mL (Saccharomyces cerevisiae [1]) [mm] | MIC (Candida albicans [7]) [µg/mL] | zone of inhibition at 4000 µg/mL (Candida albicans [2]) [mm] | MIC (Saccharomyces cerevisiae [8]) [µg/mL] | growth inhibition (GI) (Staphylococcus aureus [3]) | growth inhibition (GI) (Bacillus subtilis [6])
Cc1ccc(-c2nn(-c3ccc(S(N)(=O)=O)cc3)c3nc(C)cc(C(F)(F)F)c23)cc1 | inactive | inactive | 15.3 | inactive | 128 (≈ 287 µM) | 128 (≈ 287 µM) | 16.3 | – | – | – | – | – | –
NS(=O)(=O)c1ccc(-n2nc(-c3ccccc3)c3c(C(F)(F)F)cc(-c4ccc(Br)cc4)nc32)cc1 | – | – | 18.3 | inactive | 64 (≈ 112 µM) | 64 (≈ 112 µM) | 17.6 | 14.6 | > 256 | 13.6 | 256 (≈ 446 µM) | – | –
Cc1ccc(-c2nn(-c3ccc(S(N)(=O)=O)cc3)c3nc(-c4ccc(F)cc4)cc(C(F)(F)F)c23)cc1 | inactive | inactive | 13.6 | inactive | > 256 | 128 (≈ 243 µM) | 15.6 | – | – | – | – | – | –
NS(=O)(=O)c1ccc(-n2nc(-c3ccccc3)c3c(C(F)(F)F)cc(-c4ccc(Cl)cc4)nc32)cc1 | inactive | inactive | 15 | inactive | 128 (≈ 242 µM) | 128 (≈ 242 µM) | 16.3 | – | – | – | – | – | –
NS(=O)(=O)c1ccc(-n2nc(-c3ccccc3)c3c(C(F)(F)F)cc(-c4ccc5ccccc5c4)nc32)cc1 | inactive | inactive | 13.6 | inactive | 256 (≈ 470 µM) | 256 (≈ 470 µM) | 14.6 | – | – | – | – | – | –
NS(=O)(=O)c1ccc(-n2nc(-c3ccc(Cl)cc3)c3c(C(F)(F)F)cc(-c4ccc5ccccc5c4)nc32)cc1 | inactive | inactive | 15.3 | inactive | 128 (≈ 221 µM) | 128 (≈ 221 µM) | 16.3 | – | – | – | – | – | –
COc1ccc(-c2cc(C(F)(F)F)c3c(-c4ccc(C)cc4)nn(-c4ccc(S(N)(=O)=O)cc4)c3n2)cc1 | inactive | inactive | 14.6 | inactive | 256 (≈ 475 µM) | 128 (≈ 238 µM) | 17.3 | – | – | – | – | – | –
COc1ccc(-c2cc(C(F)(F)F)c3c(-c4ccc(Cl)cc4)nn(-c4ccc(S(N)(=O)=O)cc4)c3n2)cc1 | inactive | inactive | – | inactive | – | – | – | – | – | – | – | inactive | inactive
Cc1ccc(-c2nn(-c3ccc(S(N)(=O)=O)cc3)c3nc(-c4ccc(Br)cc4)cc(C(F)(F)F)c23)cc1 | inactive | inactive | 14.3 | inactive | 256 (≈ 436 µM) | 128 (≈ 218 µM) | 15.6 | – | – | – | – | – | –
NS(=O)(=O)c1ccc(-n2nc(-c3ccccc3)c3c(C(F)(F)F)cc(-c4ccccc4)nc32)cc1 | – | – | 18.6 | inactive | 64 (≈ 129 µM) | 128 (≈ 259 µM) | 17 | 16.3 | 64 (≈ 129 µM) | 15.3 | 64 (≈ 129 µM) | – | –
Cc1cc(C(F)(F)F)c2c(-c3ccccc3)nn(-c3ccc(S(N)(=O)=O)cc3)c2n1 | – | – | 19.3 | inactive | 64 (≈ 148 µM) | 64 (≈ 148 µM) | 20.3 | 15.3 | 64 (≈ 148 µM) | 16.3 | 64 (≈ 148 µM) | – | –
Cc1ccc(-c2nn(-c3ccc(S(N)(=O)=O)cc3)c3nc(-c4ccc5ccccc5c4)cc(C(F)(F)F)c23)cc1 | – | – | 15.6 | inactive | 128 (≈ 229 µM) | 128 (≈ 229 µM) | 15.6 | 15.6 | 32 (≈ 57.3 µM) | 18.3 | 32 (≈ 57.3 µM) | – | –
NS(=O)(=O)c1ccc(-n2nc(-c3ccc(Cl)cc3)c3c(C(F)(F)F)cc(-c4ccc(Br)cc4)nc32)cc1 | inactive | inactive | – | inactive | – | – | – | – | – | – | – | inactive | inactive
